Assay results: US20240228493A1, “LRRK2 INHIBITORS AND USES THEREOF” (NEURON23, ICN., priority 2022, published 2024)

Experiments:
[1] = Brain penetration (Kp,uu) in CD-1 mice after single IV bolus, with plasma and brain binding by equilibrium dialysis; format: in vivo; conditions: mouse, brain and plasma (unbound brain/unbound plasma), male CD-1 mice, single IV bolus 1 mg/kg
Procedure: The compounds disclosed herein were tested on CD-1 mice for brain penetration (Kp, uu) according to the following procedures.
Nine male CD-1 mice were administered TEST COMPOUND by single intravenous bolus administration at 1 mg/kg. The vehicle used for IV study was 5% DMSO, 5% solutol, 20% PEG300 and 70% water. The detailed dosing and sampling regimens are described in the following tables.
The body weights were in the range from 28.81 to 31.25 g for males on the first dosing day. All animals received a single intravenous bolus administration of TEST COMPOUND from the tail vein.
Each blood collection (about 0.06 mL per time point) was performed from saphenous vein of each animal into pre-chilled commercial K2-EDTA tubes as anti-coagulant and placed on wet ice until centrifugation.
Brain tissue was homogenized using homogenizing buffer (15 mM PBS (pH7.4): MeOH=2:1) at the ratio of 1:9 (1 g tissue with 9 mL buffer, the dilution ratio is 10). The tissue homogenate was kept at −60° C. or lower until LC-MS/MS analysis.
The concentrations of TEST COMPOUND in plasma and brain were determined by using an LC-MS/MS method.
The plasma and brain concentration of TEST COMPOUND in study animals was subjected to a non-compartmental pharmacokinetic analysis by using the Phoenix WinNonlin software program (version 6.3 or above, Pharsight). The linear/log trapezoidal rule was applied in obtaining the PK parameters.
Mouse Kp, uu=(% free in mouse brain*concentration in mouse brain)/(% free in mouse plasma*concentration in mouse plasma)
(§1) The dialysis apparatus was assembled according to the manufacturer's instruction. Each Cell was filled with 120 μL of spiked plasma sample and dialyzed against equal volume of dialysis buffer (PBS). The assay was performed in duplicate. The dialysis plates were sealed and incubated in an incubator at 37° C. with 5% CO2 and rotated at 100 rpm for 6 hours. At the end of incubation, the seals were removed and 50 μL of samples from both buffer and plasma chambers were transferred to a 96-well plate.
as §1, with “with 150” for “with 120”, “of brain homogenate” for “of spiked plasma”, “and brain homogenate” for “and plasma”, “transferred into separate tubes on” for “transferred to”, “a” for “a 96-well”

Caco-2 cells = assay: Caco-2 bidirectional permeability; format: in vitro ADME; conditions: for Caco-2 ER: Efflux Ratio=Papp(BA)/Papp(AB); for Caco-2 A2B (10^−6 cm/s): apical to basolateral; for Caco-2 A2B (10^−6 cm/s) / Caco-2 B2A (10^−6 cm/s): 2 hours, pH 7.4; for Caco-2 B2A (10^−6 cm/s): basolateral to apical
Outline: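 Caco-2 monolayers were grown 21–28 days on PET inserts and run in duplicate in HBSS with 10 mM HEPES, pH 7.4. Test compound was dosed bidirectionally at […] for 2 h at 37 °C; quantification was by LC-MS/MS. Papp and efflux ratio (B-A/A-B) were calculated, with lucifer yellow monolayer integrity checks.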

Row | Structure (SMILES) | Kp uu [1] | Caco-2 ER (Caco-2 cells) | Caco-2 A2B (10^−6 cm/s) (Caco-2 cells) | Caco-2 B2A (10^−6 cm/s) (Caco-2 cells)
1 | C[C@H]1CN(c2cc3c(cn2)NC(c2c(F)cccc2F)=Nc2c(Cl)n[nH]c2-3)C[C@H](C)O1 [Example 26, (2S,6S)-4-(3-chloro-5-(2,6-difluorophenyl)-1,6-dihydropyrazolo[4,3-d]pyrido[4,3-f][1,3]diazepin-9-yl)-2,6-dimethylmorpholine] | < 0.1 | L (L (Likely)”: ER≥2.5) | H (H (High permeability)”: A2B (B2A)>5) | H (H (High permeability)”: A2B (B2A)>5)
2 | Cc1n[nH]c2c1N=C(c1c(F)cccc1F)Nc1c-2cc(N2CCO[C@@H](C(C)(C)O)C2)nc1C (single isomer, unassigned) [Example 39] | < 0.1 | L (L (Likely)”: ER≥2.5) | M (M (Moderate permeability)”: 1≤A2B (B2A)≤5) | H (H (High permeability)”: A2B (B2A)>5)
3 | Cc1n[nH]c2c1N=C(c1c(F)cccc1F)Nc1cnc(N3CCS(=O)(=O)CC3)cc1-2 [Example 2, 4-[8-(2,6-difluorophenyl)-5-methyl-3,4,7,9,12-pentazatricyclo[8.4.0.02,6]tetradeca-1(10),2(6),4,7,11,13-hexaen-13-y1]-1,4-thiazinane 1,1-dioxide] | < 0.1 | L (L (Likely)”: ER≥2.5) | L (L (Low permeability)”: A2B (B2A)<1) | H (H (High permeability)”: A2B (B2A)>5)
4 | Fc1cccc(F)c1C1=Nc2cn[nH]c2-c2cc(N3CCOCC3)ncc2N1 [Example 33, 4-[8-(2,6-difluorophenyl)-3,4,7,9,12-pentazatricyclo[8.4.0.02,6]tetradeca-1(10),2(6),4,7,11,13-hexaen-13-yl]morpholine] | < 0.1 | L (L (Likely)”: ER≥2.5) | M (M (Moderate permeability)”: 1≤A2B (B2A)≤5) | H (H (High permeability)”: A2B (B2A)>5)
5 | Cn1cc(-c2cc3c(cn2)NC(c2c(F)cccc2F)=Nc2c(Cl)n[nH]c2-3)cn1 [Example 54, 3-chloro-5-(2,6-difluorophenyl)-9-(1-methyl-1H-pyrazol-4-yl)-1,6-dihydropyrazolo[4,3-d]pyrido[4,3-f][1,3]diazepine] | < 0.1 | L (L (Likely)”: ER≥2.5) | M (M (Moderate permeability)”: 1≤A2B (B2A)≤5) | H (H (High permeability)”: A2B (B2A)>5)
6 | [2H]C1([2H])OC([2H])([2H])C([2H])([2H])N(c2cc3c(cn2)NC(c2c(F)cccc2F)=Nc2c(C)n[nH]c2-3)C1([2H])[2H] [Example 14, 2,2,3,3,5,5,6,6-octadeuterio-4-[8-(2,6-difluorophenyl)-5-methyl-3,4,7,9,12-pentazatricyclo[8.4.0.02,6]tetradeca-1(10),2(6),4,7,11,13-hexaen-13-yl]morpholine] | < 0.1 | L (L (Likely)”: ER≥2.5) | H (H (High permeability)”: A2B (B2A)>5) | H (H (High permeability)”: A2B (B2A)>5)
7 | Cc1n[nH]c2c1N=C(c1c(F)cccc1F)Nc1cnc(N3CCC[C@@H](C#N)C3)cc1-2 [Example 18, (3R)-1-[8-(2,6-difluorophenyl)-5-methyl-3,4,7,9,12-pentazatricyclo[8.4.0.02,6]tetradeca-1(10),2(6),4,7,11,13-hexaen-13-yl]piperidine-3-carbonitrile] | < 0.1 | L (L (Likely)”: ER≥2.5) | M (M (Moderate permeability)”: 1≤A2B (B2A)≤5) | H (H (High permeability)”: A2B (B2A)>5)
8 | Cc1n[nH]c2c1N=C(c1c(F)cccc1F)Nc1cnc(-c3cnn(CC(F)F)c3)cc1-2 [Example 28, 13-[1-(2,2-difluoroethyl)pyrazol-4-y1]-8-(2,6-difluorophenyl)-5-methyl-3,4,7,9,12-pentazatricyclo[8.4.0.02,6]tetradeca-1(10),2(6),4,7,11,13-hexaene] | ≥ 0.1 | L (L (Likely)”: ER≥2.5) | M (M (Moderate permeability)”: 1≤A2B (B2A)≤5) | H (H (High permeability)”: A2B (B2A)>5)
9 | Fc1cccc(F)c1C1=Nc2c(Cl)n[nH]c2-c2cc(N3CCOCC3)ncc2N1 [Example 23, 4-(3-chloro-5-(2,6-difluorophenyl)-1,6-dihydropyrazolo[4,3-d]pyrido[4,3-f][1,3]diazepin-9-yl)morpholine] | < 0.1 | L (L (Likely)”: ER≥2.5) | M (M (Moderate permeability)”: 1≤A2B (B2A)≤5) | H (H (High permeability)”: A2B (B2A)>5)
10 | Cc1n[nH]c2c1N=C(c1c(F)cccc1F)Nc1c-2cc(N2CCO[C@@H](CO)C2)nc1C [Example 37, (R)-(4-(5-(2,6-difluorophenyl)-3,7-dimethyl-1,6-dihydropyrazolo[4,3-d]pyrido[4,3-f][1,3]diazepin-9-yl)morpholin-2-y1)methanol] | < 0.1 | L (L (Likely)”: ER≥2.5) | M (M (Moderate permeability)”: 1≤A2B (B2A)≤5) | H (H (High permeability)”: A2B (B2A)>5)
11 | Fc1cccc(F)c1C1=Nc2c(Cl)n[nH]c2-c2cc(N3CCOCC3)ccc2N1 (single isomer, unassigned) [Example 35, 4-(3-chloro-5-(2,6-difluorophenyl)-1,6-dihydrobenzo[d]pyrazolo[3,4-f][1,3]diazepin-9-y1)morpholine] | < 0.1 | L (L (Likely)”: ER≥2.5) | H (H (High permeability)”: A2B (B2A)>5) | H (H (High permeability)”: A2B (B2A)>5)
12 | Cc1n[nH]c2c1N=C(c1c(F)cccc1F)Nc1ccc(N3CCO[C@H](C(C)(C)O)C3)cc1-2 (single isomer, unassigned) [Example 36] | < 0.1 | L (L (Likely)”: ER≥2.5) | M (M (Moderate permeability)”: 1≤A2B (B2A)≤5) | H (H (High permeability)”: A2B (B2A)>5)
13 | Cc1n[nH]c2c1N=C(c1c(F)cccc1F)Nc1c-2cc(N2CCC(C)(O)CC2)nc1C [Example 41, 1-(5-(2,6-difluorophenyl)-3,7-dimethyl-1,6-dihydropyrazolo[4,3-d]pyrido[4,3-f][1,3]diazepin-9-yl)-4-methylpiperidin-4-ol] | < 0.1 | L (L (Likely)”: ER≥2.5) | M (M (Moderate permeability)”: 1≤A2B (B2A)≤5) | H (H (High permeability)”: A2B (B2A)>5)
14 | [2H]C([2H])([2H])c1n[nH]c2c1N=C(c1c(F)cccc1F)Nc1cnc(N3CCO[C@H](C)C3)cc1-2 [Example 27, (2R)-4-[8-(2,6-difluorophenyl)-5-(trideuteriomethyl)-3,4,7,9,12-pentazatricyclo[8.4.0.02,6]tetradeca-1(10),2(6),4,7,11,13-hexaen-13-y1]-2-methyl-morpholine] | < 0.1 | L (L (Likely)”: ER≥2.5) | H (H (High permeability)”: A2B (B2A)>5) | H (H (High permeability)”: A2B (B2A)>5)
15 | Cc1n[nH]c2c1N=C(c1c(F)cccc1F)Nc1cnc(N3C[C@@H]4C[C@H]3CO4)cc1-2 [Example 6, (1S,4S)-5-[8-(2,6-difluorophenyl)-5-methyl-3,4,7,9,12-pentazatricyclo[8.4.0.02,6]tetradeca-1(10),2(6),4,7,11,13-hexaen-13-y1]-2-oxa-5-azabicyclo[2.2.1]heptane] | < 0.1 | L (L (Likely)”: ER≥2.5) | M (M (Moderate permeability)”: 1≤A2B (B2A)≤5) | H (H (High permeability)”: A2B (B2A)>5)
16 | [2H]C1([2H])OC([2H])([2H])C([2H])([2H])N(c2cc3c(cn2)NC(c2c(F)cccc2F)=Nc2cn[nH]c2-3)C1([2H])[2H] [Example 20, 2,2,3,3,5,5,6,6-octadeuterio-4-[8-(2,6-difluorophenyl)-3,4,7,9,12-pentazatricyclo[8.4.0.02,6]tetradeca-1(10),2(6),4,7,11,13-hexaen-13-yl]morpholine] | < 0.1 | L (L (Likely)”: ER≥2.5) | M (M (Moderate permeability)”: 1≤A2B (B2A)≤5) | H (H (High permeability)”: A2B (B2A)>5)
